This is an account of results in patent US8962602B2, “Anticancer steroidal lactones unsaturated in position 7 (8)” (Pharma Mar, S.A., priority 2010, dated 2015).

Several values for one entry are separate records, joined by “and”; a condition that tells them apart may be missing. Equal entries are not always repeated. Where two headings read alike, the source gives them in different places. Where only a bound is given, the exact number is not on record here.

Common to all, as to assay: Cytotoxicity assay, SRB colorimetric assay
Holding throughout (assay type): cell-based

One data set concerns A549. The note with it: for TGI / GI50: A549 lung carcinoma (NSCLC), 72 hours treatment; for TGI: total cell growth inhibition (cytostatic effect); for GI50 / CC50: Homo sapiens, A549, 72 h; for GI50: 50% cell growth inhibition; for CC50: read-out: LC50, A549 lung carcinoma (NSCLC), 72 hours treatment, 50% net cell killing (cytotoxic effect). The text has this: (§1) The aim of this assay is to evaluate the in vitro cytostatic (ability to delay or arrest tumor cell growth) or cytotoxic (ability to kill tumor cells) activity of the samples being tested.
(§2) A colorimetric assay, using sulforhodamine B (SRB) reaction has been adapted to provide a quantitative measurement of cell growth and viability (following the technique described by Skehan et al. J. Natl. Cancer Inst. 1990, 82, 1107-1112).
(§3) This form of assay employs SBS-standard 96-well cell culture microplates (Faircloth et al. Methods in Cell Science, 1988, 11(4), 201-205; Mosmann et al, Journal of Immunological Methods, 1983, 65(1-2), 55-63). All the cell lines used in this study were obtained from the American Type Culture Collection (ATCC) and derive from different types of human cancer.
(§4) Cells were maintained in Dulbecco's Modified Eagle Medium (DMEM) supplemented with 10% Fetal Bovine Serum (FBS), 2 mM L-glutamine, 100 U/mL penicillin and 100 U/mL streptomycin at 37° C., 5% CO2 and 98% humidity. For the experiments, cells were harvested from subconfluent cultures using trypsinization and resuspended in fresh medium before counting and plating.
(§5) Cells were seeded in 96 well microtiter plates, at 5×10^3 cells per well in aliquots of 150 μL, and allowed to attach to the plate surface for 18 hours (overnight) in drug free medium. After that, one control (untreated) plate of each cell line was fixed (as described below) and used for time zero reference value. Culture plates were then treated with test compounds (50 μL aliquots of 4× stock solutions in complete culture medium plus 4% DMSO) using ten serial dilutions (concentrations ranging from 10 to 0.00262 μg/mL) and triplicate cultures (1% final concentration of DMSO). After 72 hours treatment, the antitumor effect was measured by using the SRB methodology: Briefly, cells were washed twice with PBS, fixed for 15 min in 1% glutaraldehyde solution at room temperature, rinsed twice in PBS, and stained in 0.4% SRB solution for 30 min at room temperature. Cells were then rinsed several times with 1% acetic acid solution and air-dried at room temperature. SRB was then extracted in 10 mM trizma base solution and the absorbance measured in an automated spectrophotometric plate reader at 490 nm. Effects on cell growth and survival were estimated by applying the NCl algorithm (Boyd M R and Paull K D. Drug Dev. Res. 1995, 34, 91-104).
(§6) Using the mean±SD of triplicate cultures, a dose-response curve was automatically generated using nonlinear regression analysis. Three reference parameters were calculated (NCI algorithm) by automatic interpolation: GI50=compound concentration that produces 50% cell growth inhibition, as compared to control cultures; TGI=total cell growth inhibition (cytostatic effect), as compared to control cultures, and LC50=compound concentration that produces 50% net cell killing (cytotoxic effect).

Another data set relates to HT29. The note with it: for TGI: total cell growth inhibition (cytostatic effect); for GI50: 50% cell growth inhibition.
Excerpt: as §1, §2, §3, §4, §5, §6

In the next data set the test system is MDA-MB-231. The note with it: for GI50: 50% cell growth inhibition; for TGI: total cell growth inhibition (cytostatic effect).
Excerpt: as §1, §2, §3, §4, §5, §6

[1] abbreviates: HT29 colorectal adenocarcinoma, 72 hours treatment.
The mark [2] stands for this setting: Homo sapiens, HT-29, 72 h, HT29 colorectal adenocarcinoma, 72 hours treatment.
The mark [3] stands for this setting: Homo sapiens, HT-29, 72 h, read-out: LC50, HT29 colorectal adenocarcinoma, 72 hours treatment, 50% net cell killing (cytotoxic effect).
Where [4] appears, read: Homo sapiens, MDA-MB-231, 72 h, MDA-MB-231 breast adenocarcinoma, 72 hours treatment.
Setting [5] is: Homo sapiens, MDA-MB-231, 72 h, read-out: LC50, MDA-MB-231 breast adenocarcinoma, 72 hours treatment, 50% net cell killing (cytotoxic effect).
The mark [6] stands for this setting: MDA-MB-231 breast adenocarcinoma, 72 hours treatment.

For `CO[C@H]1[C@H]2O[C@H]2[C@]2(C=O)[C@H]3CC[C@]4(C)[C@@H](c5ccc(=O)oc5)C(Cl)(Cl)C[C@]4(O)C3=CC[C@H]2C1(C)C` [Aegomycin A], the TGI was found to be 4.39E−9 Molar with A549, 3.25E−8 Molar in the data set with HT29 (setting [1]) and 3.63E−8 Molar in the data set with MDA-MB-231 (setting [6]). The GI50 amounted to 3.82 nM in the data set with A549, 10.5 nM in the data set with HT29 (setting [2]) and 19.1 nM in the data set with MDA-MB-231 (setting [4]). Further, the values for the CC50 with A549 and in the data set with MDA-MB-231 (setting [5]) were 5.35 nM and 61.1 nM, respectively. In the data set with HT29 (setting [3]), the LC50 (50% net cell killing) was 115 nM.
For `CO[C@H]1[C@H]2O[C@H]2[C@]2(CO)[C@H]3CC[C@]4(C)[C@@H](c5ccc(=O)oc5)C(Cl)(Cl)C[C@]4(O)C3=CC[C@H]2C1(C)C` [Aegomycin B], the TGI stood at 7.61E−9 Molar with A549, 2.28E−7 Molar in the data set with HT29 (setting [1]) and 1.67E−7 Molar in the data set with MDA-MB-231 (setting [6]). For the same molecule, the GI50 in the data set on A549 was 5.9 nM; in the data set on HT29 (setting [2]), 30.4 nM; in the data set with MDA-MB-231 (setting [4]) it was 76.1 nM. The CC50 in the data set on A549 worked out at 11.4 nM; with MDA-MB-231 (setting [5]) it was 381 nM. Moreover, in the data set with HT29 (setting [3]), the LC50 (50% net cell killing) came to 3040 nM.
Consider `CC1(C)C(=O)C=C[C@]2(C)[C@H]3CC[C@]4(C)[C@@H](c5ccc(=O)oc5)C(Cl)(Cl)C[C@]4(O)C3=CC[C@@H]12` [Aegomycin C], for which the TGI is listed as 1.72E−8 Molar with A549, 1.05E−7 Molar with HT29 (setting [1]) and 1.97E−7 Molar in the data set with MDA-MB-231 (setting [6]). For the same molecule, the GI50 was 7.54 nM in the data set on A549, 9.84 nM with HT29 (setting [2]) and 62.8 nM in the data set with MDA-MB-231 (setting [4]). Also, the results for the CC50 with A549 and in the data set on MDA-MB-231 (setting [5]) were 41.9 nM and 691 nM, respectively. In the data set on HT29 (setting [3]), the LC50 (50% net cell killing) is greater than 20900 nM.
Consider `CO[C@H]1C=C[C@]2(C)[C@H]3C[C@@H](O)[C@]4(C)[C@@H](c5ccc(=O)oc5)C(Cl)(Cl)C[C@]4(O)C3=CC[C@H]2C1(C)C` [Aegomycin D], for which the TGI in the data set on A549 came out at 1.28E−8 Molar; with HT29 (setting [1]), 1.35E−7 Molar; with MDA-MB-231 (setting [6]), 9.81E−8 Molar. For the same molecule, the GI50 came to 8.64 nM with A549, 31.4 nM in the data set with HT29 (setting [2]) and 64.8 nM with MDA-MB-231 (setting [4]). Besides, the values for the CC50 in the data set on A549 and in the data set on MDA-MB-231 (setting [5]) were 18.3 nM and 173 nM, respectively. Further, the LC50 (50% net cell killing) in the data set with HT29 (setting [3]) is 1450 nM.
On to `CO[C@H]1C=C[C@]2(C)[C@H]3CC[C@]4(C)[C@@H](c5ccc(=O)oc5)C(Cl)(Cl)C[C@]4(O)C3=CC[C@H]2C1(C)C` [Aegomycin E], for which the TGI amounted to 5.67E−8 Molar in the data set on A549, 4.86E−7 Molar with HT29 (setting [1]) and 3.65E−7 Molar in the data set on MDA-MB-231 (setting [6]). Besides, the GI50 with A549 was 42.6 nM; in the data set on HT29 (setting [2]), 118 nM; in the data set on MDA-MB-231 (setting [4]) it was 197 nM. Besides, the CC50 with A549 was 75 nM; with MDA-MB-231 (setting [5]), 750 nM. Also, the LC50 (50% net cell killing) in the data set with HT29 (setting [3]) worked out at 5270 nM.
Regarding `CC1(C)C(=O)C=C[C@]2(C)[C@H]3CC[C@]4(C)[C@@H](c5ccc(=O)oc5)[C@@H](Cl)C[C@]4(O)C3=CC[C@@H]12` [Aegomycin F], the GI50 was found to be 36.5 nM with HT29 (setting [1]), 65.5 nM in the data set on HT29 (setting [2]), 88 nM with MDA-MB-231 (setting [4]) and 81.1 nM with MDA-MB-231 (setting [6]). For the same molecule, the TGI was 4.06E−7 Molar and 2.03E−7 Molar in the data set with HT29 (setting [1]); 2.71E−7 Molar and 2.03E−7 Molar in the data set on MDA-MB-231 (setting [6]). Further, the LC50 (50% net cell killing) in the data set on HT29 (setting [3]) was 3160 nM; in the data set on HT29 (read-out: LC50, HT29 colorectal adenocarcinoma, 72 hours treatment, 50% net cell killing (cytotoxic effect)) it was 4860 nM. For the same molecule, the CC50 amounted to 948 nM in the data set on MDA-MB-231 (setting [5]) and 608 nM in the data set with MDA-MB-231 (read-out: LC50, MDA-MB-231 breast adenocarcinoma, 72 hours treatment, 50% net cell killing (cytotoxic effect)).
With `CO[C@H]1C=C[C@]2(C)[C@H]3CC[C@]4(C)[C@@H](c5ccc(=O)oc5)[C@@H](Cl)C[C@]4(O)C3=CC[C@H]2C1(C)C` [Aegomycin G], the TGI with A549 was 6.32E−8 Molar; in the data set with HT29 (setting [1]), 6.75E−7 Molar; in the data set on MDA-MB-231 (setting [6]), 4.36E−7 Molar. The results for the GI50 with A549, in the data set on HT29 (setting [2]) and with MDA-MB-231 (setting [4]) were 39.2 nM, 146 nM and 170 nM, respectively. Moreover, the results for the CC50 in the data set on A549 and in the data set on MDA-MB-231 (setting [5]) were 111 nM and 1290 nM, respectively. In addition, in the data set with HT29 (setting [3]), the LC50 (50% net cell killing) amounted to 3920 nM.

As usually defined, the GI50 is the concentration that inhibits growth by half. Read a low GI50 as more potent growth inhibition.
